The results in this text go back to patent publication US20120077738A1, “COMPOSITIONS AND METHODS FOR […] SUSCEPTIBILITY TO ANTIVIRAL AGENTS” (priority 2010, published 2012).

The experiment relates to genotype 1 HCV. Kind of experiment: HCV outcome after liver transplant in HIV/HCV coinfected patients by calcineurin inhibitor. It is filed as in vivo, human. An excerpt:
Calcineurin Inhibition Use posttransplant in HIV/HCV infected patients. Eighty HIV/HCV coinfected patients received liver transplants as part of the HIV and transplantation trial from 2003-2009. Of these patients 61 were infected with genotype 1 HCV and received only a liver (not liver+kidney) and are further described here and in the corresponding data shown in FIGS. 1-14.

For `C=CC[C@@H]1/C=C(\C)C[C@H](C)C[C@H](OC)[C@H]2O[C@@](O)(C(=O)C(=O)N3CCCC[C@H]3C(=O)O[C@H](/C(C)=C/[C@@H]3CC[C@@H](O)[C@H](OC)C3)[C@H](C)[C@@H](O)CC1=O)[C@H](C)C[C@@H]2OC` [Tacrolimus], the failed interferon therapy (by calcineurin inhibitor started immediately post transplant, two of the CsA group had switched to Tacrolimus) was 13 patients. Moreover, under “patients on Tacrolimus immediately post transplant who received interferon based therapy”, the “Sustained Virologic Response (negative HCV PCR 6 months or more after HCV therapy was stopped)” value is recorded as “one patient out of these 14”.
